Measurements published in US8846951B2 (AbbVie Inc., priority 2009, dated 2014).
pEC50: −log10 of the molar value. Read-outs that look alike come from different tables or passages of the source.

What was measured:
5HT2B receptors = molecular target: T1, 5HT2B receptors (Homo sapiens, UniProt P41595); test: Human 5-HT2B functional high throughput screening assay in CHO-K1 cells (calcium flux); type: cell-based; conditions: for pEC50: CHO-K1 cells, calcium flux
T1 construct: expressed in transfected cells; host or cells: CHO-K1 cells
T1 sequence (P41595 whole entry): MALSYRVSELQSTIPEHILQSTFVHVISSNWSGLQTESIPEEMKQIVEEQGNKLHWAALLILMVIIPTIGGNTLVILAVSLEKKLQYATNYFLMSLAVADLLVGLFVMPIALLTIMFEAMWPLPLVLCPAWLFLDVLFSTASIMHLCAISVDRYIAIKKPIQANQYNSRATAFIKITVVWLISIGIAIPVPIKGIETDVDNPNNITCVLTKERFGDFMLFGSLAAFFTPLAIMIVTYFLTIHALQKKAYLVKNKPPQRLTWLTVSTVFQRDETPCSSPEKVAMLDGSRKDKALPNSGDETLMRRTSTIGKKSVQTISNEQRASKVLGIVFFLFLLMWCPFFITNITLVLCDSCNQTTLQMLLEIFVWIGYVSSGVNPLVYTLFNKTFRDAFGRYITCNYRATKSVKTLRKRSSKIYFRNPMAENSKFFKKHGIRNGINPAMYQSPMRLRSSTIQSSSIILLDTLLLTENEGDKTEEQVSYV
How it was run: (§1)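 Agonism was measured as FLIPR fluorescence increase (480/530 nm, 25° C) with Ca4 dye and 2.5 mM probenecid, in serum-starved CHO-K1 lines overexpressing human 5-HT2C or 5-HT2B. Six-point 1:10 dilutions from 10 μM (0.2% DMSO final) were fitted by 4-parameter logistics. Responses were normalised to serotonin to give EC50 and % Emax.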

5HT2C receptors = molecular target: T2, 5HT2C receptors (Homo sapiens, UniProt P28335); test: Human 5-HT2C functional high throughput screening assay in CHO-K1 cells (calcium flux); type: cell-based; parameters: expressed in transfected cells; host or cells: CHO-K1 cells; conditions: for pEC50: CHO-K1 cells, calcium flux; for Emax: CHO-K1, 5-HT2C, maximum functional response as percentage relative to the effect of serotonin
T2 sequence (P28335 33-458): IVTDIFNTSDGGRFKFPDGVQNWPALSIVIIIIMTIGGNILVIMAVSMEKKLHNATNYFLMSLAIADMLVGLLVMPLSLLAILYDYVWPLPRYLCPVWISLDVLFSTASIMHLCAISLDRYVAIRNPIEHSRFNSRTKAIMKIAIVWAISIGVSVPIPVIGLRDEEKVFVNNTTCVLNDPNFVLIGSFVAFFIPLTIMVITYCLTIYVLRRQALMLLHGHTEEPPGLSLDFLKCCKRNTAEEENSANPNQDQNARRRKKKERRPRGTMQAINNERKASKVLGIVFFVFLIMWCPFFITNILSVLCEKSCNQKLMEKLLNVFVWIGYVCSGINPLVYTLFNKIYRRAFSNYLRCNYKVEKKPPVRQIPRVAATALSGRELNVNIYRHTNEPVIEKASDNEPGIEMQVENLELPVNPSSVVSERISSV
How it was run: as §1

[1] = 5-HT2B agonist activity, read-out: EC50
[2] = 5-HT2B, maximum functional response as percentage relative to the effect of serotonin
[3] = 5-HT2C agonist activity, read-out: EC50
[4] = CHO-K1, 5-HT2B, maximum functional response as percentage relative to the effect of serotonin, read-out: Emax

Row | Structure (SMILES) | pEC50 (5HT2B receptors; [1]) | Emax (5HT2B receptors; [2]) | pEC50 (5HT2C receptors; [3]) | Emax (5HT2C receptors; read-out: Emax) | Emax (5HT2B receptors; CHO-K1) | Emax (5HT2C receptors) | Emax (5HT2B receptors; [4]) | pEC50 (5HT2B receptors; EC50, 5-HT2B agonist activity) | pEC50 (5HT2C receptors; EC50, 5-HT2C agonist activity)
1 | COc1ccc(-c2ccc3c(c2)C(=O)NC[C@@H]2CN(C)C[C@@H]32)cc1F (relative stereo) [Example 316, Trans-8-(3-fluoro-4-methoxyphenyl)-2-methyl-2,3,3a,4,5,10b-hexahydropyrrolo[3,4-d][2]benzazepin-6(1H)-one] | < 5.00 | inactive | 8.15 | 80% |  |  |  |  | 
2 | CC(=O)N1CC[C@@H]2CNC[C@H]2c2ccccc21 (relative stereo) [Example 328, 1-[Trans-2,3,3a,4,5,10b-hexahydropyrrolo[3,4-d][1]benzazepin-6(1H)-yl]ethanone] | 5.40 |  | 6.05 |  | 60% | 90% |  |  | 
3 | CN1C[C@H]2CNC(=O)c3cc(C4=CCOCC4)ccc3[C@@H]2C1 (relative stereo) [Example 242, Trans-8-(3,6-dihydro-2H-pyran-4-yl)-2-methyl-1,2,3,3a,4,5-hexahydrobenzo[c]pyrrolo[3,4-e]azepin-6(10bH)-one] | < 5.00 | inactive | 6.70 | > 120% |  |  |  |  | 
4 | N#Cc1ccccc1S(=O)(=O)N1Cc2cccnc2[C@@H]2CNC[C@H]2C1 (relative stereo) [Example 355, 2-[Trans-7,7a,8,9,10,10a-hexahydropyrido[3,2-c]pyrrolo[3,4-e]azepin-6(5H)-ylsulfonyl]benzonitrile] | 5.22 |  | 7.00 | 90% |  |  | 10% |  | 
5 | Brc1cccc2c1OCC[C@H]1CNC[C@H]21 (relative stereo) [Example 383, Trans-7-bromo-2,3,3a,4,5,10b-hexahydro-1H-[1]benzoxepino[4,5-c]pyrrole] |  |  |  |  | 100% | 105% |  | 8.22 | 10.40
6 | CN1C[C@H]2CNC(=O)c3cc(-c4ccc(F)cc4F)ccc3[C@@H]2C1 (relative stereo) [Example 331, Trans-8-(2,4-difluorophenyl)-2-methyl-2,3,3a,4,5,10b-hexahydropyrrolo[3,4-d][2]benzazepin-6(1H)-one] | < 5.00 | inactive | 6.70 | 95% |  |  |  |  | 
7 | COc1cc(OC)c2c(c1)C(=O)NC[C@@H]1CN(Cc3ccccc3)C[C@@H]21 (relative stereo) [Example 98, Trans-2-benzyl-8,10-dimethoxy-1,2,3,3a,4,5-hexahydrobenzo[c]pyrrolo[3,4-e]azepin-6(10bH)-one] | < 5.00 | inactive | 8.00 | > 120% |  |  |  |  | 
8 | CN1C[C@H]2CCOc3ncccc3[C@@H]2C1 (relative stereo) [Example 268, Trans-2-methyl-2,3,3a,4,5,10b-hexahydro-1H-pyrrolo[3′,4′:4,5]oxepino[2,3-b]pyridine] | < 5.00 | inactive | 5.15 |  |  | 70% |  |  | 
9 | CN1C[C@H]2CNC(=O)c3cc(-c4cccc(C=O)c4)ccc3[C@@H]2C1 (relative stereo) [Example 198, Trans-3-(2-methyl-6-oxo-1,2,3,3a,4,5,6,10b-octahydrobenzo[e]pyrrolo[3,4-c]azepin-8-yl)benzaldehyde] | < 5.00 | inactive | 8.05 | > 120% |  |  |  |  | 
10 | Brc1cccc2c1[C@H]1CNC[C@@H]1CCO2 (relative stereo) [Example 377, Trans-10-bromo-2,3,3a,4,5,10b-hexahydro-1H-[1]benzoxepino[4,5-c]pyrrole] |  |  |  |  | 30% | 100% |  | 7.52 | 6.70
11 | CN1C[C@H]2CNC(=O)c3cc(C4CCCCC4)ccc3[C@@H]2C1 (relative stereo) [Example 204, Trans-8-cyclohexyl-2-methyl-1,2,3,3a,4,5-hexahydrobenzo[e]pyrrolo[3,4-c]azepin-6(10bH)-one] | < 5.00 | inactive | 6.30 |  |  | 80% |  |  | 
12 | Cc1cc(C)c(S(=O)(=O)N2Cc3cccnc3[C@@H]3CNC[C@H]3C2)c(C)c1 (relative stereo) [Example 363, Trans-6-(mesitylsulfonyl)-5,6,7,7a,8,9,10,10a-octahydropyrido[3,2-c]pyrrolo[3,4-e]azepine] | 6.00 |  | 6.70 | 65% |  |  | 15% |  | 
13 | CNC(=O)c1cccc(-c2ccc3c(c2)C(=O)NC[C@@H]2CN(C)C[C@@H]32)c1 (relative stereo) [Example 382, N-Methyl-3-[Trans-2-methyl-6-oxo-1,2,3,3a,4,5,6,10b-octahydropyrrolo[3,4-d][2]benzazepin-8-yl]benzamide] | < 5.00 | inactive | 7.05 | 100% |  |  |  |  | 
14 | CC(C)COc1ccc2c(c1)C(=O)NC[C@@H]1CNC[C@@H]21 [Example 309, (3aS,10bR)-8-Isobutoxy-2,3,3a,4,5,10b-hexahydropyrrolo[3,4-d][2]benzazepin-6(1H)-one] |  | inactive |  |  |  | 70% |  | < 5.00 | 
15 | CC(C)CCOc1ccc2c(c1)C(=O)NC[C@@H]1CNC[C@@H]21 (relative stereo) [Example 169, Trans-8-(isopentyloxy)-1,2,3,3a,4,5-hexahydrobenzo[e]pyrrolo[3,4-c]azepin-6(10bH)-one] |  | inactive |  |  |  | > 120% |  | < 5.00 | 9.00
16 | CN1C[C@H]2CNC(=O)c3cc(C(=O)N4CCCCC4)ccc3[C@@H]2C1 (relative stereo) [Example 122, Trans-2-methyl-8-(piperidine-1-carbonyl)-1,2,3,3a,4,5-hexahydrobenzo[e]pyrrolo[3,4-c]azepin-6(10bH)-one] | < 5.00 | inactive | 5.22 | 100% |  |  |  |  | 
17 | CN1C[C@H]2CNC(=O)c3cc(-c4cccc(C(C)(O)C(F)(F)F)c4)ccc3[C@@H]2C1 (relative stereo) [Example 185, Trans-2-methyl-8-(3-(1,1,1-trifluoro-2-hydroxypropan-2-yl)phenyl)-1,2,3,3a,4,5-hexahydrobenzo[e]pyrrolo[3,4-c]azepin-6(10bH)-one] | < 5.00 | inactive | 9.00 | 120% |  |  |  |  | 
18 | O=C1CCc2ccc(-c3ccc4c(c3)C(=O)NC[C@@H]3CNC[C@@H]43)cc21 (relative stereo) [Example 247, Trans-8-(3-oxo-2,3-dihydro-1H-inden-5-yl)-1,2,3,3a,4,5-hexahydrobenzo[c]pyrrolo[3,4-e]azepin-6(10bH)-one] | < 5.00 | inactive | 8.10 | > 120% |  |  |  |  | 
19 | COc1c(C)cc(-c2ccc3c(c2)C(=O)NC[C@@H]2CN(C)C[C@@H]32)cc1C (relative stereo) [Example 317, Trans-8-(4-methoxy-3,5-dimethylphenyl)-2-methyl-2,3,3a,4,5,10b-hexahydropyrrolo[3,4-d][2]benzazepin-6(1H)-one] | < 5.00 | inactive | 7.15 | 75% |  |  |  |  | 
20 | C[C@@H](Cc1ccccc1)Oc1ccc2c(c1)C(=O)NC[C@@H]1CNC[C@@H]21 (mixture of isomers) [Example 149, Trans-8-((S)-1-phenylpropan-2-yloxy)-1,2,3,3a,4,5-hexahydrobenzo[e]pyrrolo[3,4-c]azepin-6(10bH)-one] | < 5.00 | inactive | 8.40 | 120% |  |  |  |  | 
